From US12600943B2, “Innervated organoid compositions and methods of making same” (priority 2019, dated 2026)

How the values were obtained:
Type in all cases: cell-based, human
hPSC-derived NC cells [1] = experiment: Single-cell RNA-seq clustering of hPSC-derived NC cells; settings: SAG treatment groups (day 0-4, day 0-10)
Excerpt: To understand how HH signaling influences the topology of the neuronal differentiation path of NC, Applicant profiled additional 1,146 single-cell transcriptomes of NC cells with the constant (day 0-10) or early-phase (day 0-4) SAG treatment and NC-derived neurons sampled from day 32 of differentiation as shown in FIG. 4A. Together with 392 control NC cells, a total of 1,538 individual cells were sequenced with 5844 median genes and 1.16 million mean confident mapped reads per cell (FIG. 8). […]
Bulk and single-cell (sc) RNA sequencing were performed at the Centre of Genomic Science, The University of Hong Kong. […] Then, 1 μl of cDNA was checked and quantified on an Agilent Bioanalyzer high-sensitivity DNA chip. […] Libraries were checked and quantified on an Agilent Bioanalyzer high-sensitivity DNA chip (size range 150-2000 bp) and by Qubit dsDNA BR (Molecular Probes). […]
Fastq files with paired-end reads were aligned to the ENSEMBL GRCh38 (release 90, https://www.ensembl.org/) human transcriptome using Bowtie2 v2.3.4.1 (Langmead and Salzberg, 2012) with options ‘—sensitive—mp 1,1—np 1—score-min L,0,-0.1-I 1-X 2000—no-mixed—no-discordant-N 1-L 25-k 200’ which allows one mismatch during sequence alignment. Quality control of the reads of each cell was assessed using FastQC v0.11.6 (FIG. 8). Gene expression level was quantified using TPM values generated by RSEM v1.3.0 (Li and Dewey, 2011). […]

hPSC-derived NC cells [2] = experiment: In vitro neuronal differentiation of FACS-sorted NC cells, immunocytochemistry; settings: NC^SAG0-10 cells, day 22 of differentiation
Excerpt: On the other hand, NC^SAG0-10 cells could grow and expand as competently as the control cells. Applicant then examined the differentiation potential of NC^SAG0-10 cells on the basis of their neuronal differentiation capability, as monitored by the expression of pan-neuronal markers (HU, TUJ1 and PGP9.5) and subtype markers, such as tyrosine hydroxylase (TH) for dopaminergic neurons and vasoactive intestinal polypeptide (VIP) for cholinergic neurons, which are the major subtypes of nerve cells found in the ENS.
Around 40 thousand FACS-enriched NC cells were seeded as droplets on poly-ornithine/laminin/fibronectin (PO/LM/FN)-coated 24 well plate in N2 medium containing 10 ng/ml FGF2, 3 μM CHIR99021 and 10 μM Y-27632. […]
For immunocytochemistry, the cells were fixed with 4% paraformaldehyde in PBS at room temperature for 30 min, followed by blocking with 1% bovine serum albumin (BSA) (Thermo Scientific, 23209) with or without 0.1% Triton X-100 (Sigma, T8787) in PBS buffer. […] Quantitative image analysis of differentiated neuronal cultures was performed with ImageJ. A minimum of 4,000 cells were analyzed per sample. Percentages of neuronal cells were measured over the total number of cells (DAPI) and the values reported in bar charts represent the mean±SEM.

HCOs+ENCCs = experiment: Innervated HCO model, immunostaining of neurons
HCOs+ENCCs explants = experiment: Electrical-field stimulation (EFS) of explanted innervated HCO kidney grafts
hPSCs = experiment: Early-phase lineage immunocytochemistry during NC induction (SOX2+NANOG-, SNAIL+, TUJ1+/TH+)
[3] = tested on: hPSCs (hPSC-to-NC transition); experiment: hPSC-to-NC differentiation, flow cytometry of HNK-1+ p75NTR+ cells; settings: for percentage of HNK-1+ p75NTR+ cells (NC yield): flow cytometry at day 10
[4] = tested on: ENCC-derived neurons in HCO explants; experiment: Ex vivo neuromuscular coupling test of HCO muscle strips (DMPP stimulation)

SMILES: CNC1CCC(N(Cc2cccc(-c3ccncc3)c2)C(=O)c2sc3ccccc3c2Cl)CC1 (stereo not shown) [SAG]
- proportion of SAG-specific NC intermediates (Clusters 6 & 7; SOX10-, PHOX2B+, TUBB3high) in total population (hPSC-derived NC cells [1]): up to 75%
- numbers of TH+ and VIP+ neurons compared to control (hPSC-derived NC cells [2]): Significantly greater numbers
- mature neurons expressing PGP9.5 and NF vs control (HCOs+ENCCs; HCO+ENCCs^SAG0_10 explants): more mature neurons
- TUJ1+ and TH+ cells aligned with epithelial cells of HCOs vs control (HCOs+ENCCs; HCOs with ENCCs^SAG0_10 in vitro (Day 28)): more TUJ1^+ and TH^+ cells
- survival and engraftment efficiency of ENCCs to HCOs (HCOs+ENCCs; SAG treatment during NC induction): greatly improves
- EFS-induced wave-like contractions compared to HCO+ENCC group (HCOs+ENCCs explants; HCO+ENCC^SAG0_10 explants (ENCCs derived with SAG day 0-10)): more profound series of wave-like contractions
- number of SOX2+NANOG- cells (ectoderm lineage commitment) (hPSCs; brief activation in early phase of NC induction, day 4 of differentiation): increases the number
- formation of NC-like cells (SNAIL+) (hPSCs; longer SAG treatment (4 days)): emerged as early as day 4
- NC-to-neuron transition (hPSCs; prolonged (day 0-10) or late-phase (day 4-10) SAG treatment): boosted the NC-to-neuron transition
- percentage of HNK-1+ p75NTR+ cells (NC yield) ([3]; SAG 1 μM, days 0-10 (constant), untreated 19.6±0.51%): 42.5±9.3%
- percentage of HNK-1+ p75NTR+ cells (NC yield) ([3]; SAG added 4 days in early phase (day 0-4)): up to 44.6±9.1%
- contractile responses to DMPP compared to HCO+ENCC ([4]; HCO+ENCC^SAG0_10): stronger contractile responses

SMILES: NC1=N[C@H](O)[C@H]2[C@H]3O[C@]4(O)O[C@@H]([C@@H](O)[C@@]2(N1)[C@@H]4O)[C@]3(O)CO [TTX, tetrodotoxin]
- EFS-induced contractions (HCOs+ENCCs explants): completely inhibited
- contractile activity triggered by low-voltage stimulation (HCOs+ENCCs explants): completely inhibited
- DMPP-induced muscle contraction [4]: completely abolished

SMILES: CC1=C2C[C@H]3[C@@H](CC=C4C[C@@H](O)CC[C@@]43C)[C@@H]2CC[C@]12O[C@@H]1C[C@H](C)CN[C@H]1[C@H]2C [cyclopamine]
- hPSC-to-NC transition (percentage of HNK-1+p75NTR+ cells) [3]: dramatically suppressed
